The values that follow are results of earlier work, collected in patent US7799817B2, “Compositions and methods for sleep regulation” (LifeScape BioSciences Inc, priority 2004, dated 2010).

The conditions of series [1]: adult human.
Series [2] deals with jet lag.
Series [3] deals with jet lag. As to conditions: for mean global jet lag score: 0=no jet lag, 100=extreme jet lag.

Read-outs that look alike come from different tables or passages of the source.

As to `COc1ccc2[nH]cc(CCNC(C)=O)c2c1` [melatonin, N-acetyl-5-methoxytryptamine], the half-life entry in series [1] is given as “approximately 45 minutes”. Besides, in the series on jet lag [2] (0.5 mg fast release versus 5 mg), the “effectiveness of lower dose for symptoms of jet lag unrelated to sleep” value is recorded as “almost as effective as the higher dose”. The “effect of higher dose on sleep quality and sleep latency” value with jet lag [2] (5 mg versus 0.5 mg fast release) is “greater effect on sleep quality and sleep latency than the lower dose”. Further, in the series on jet lag [2] (slow release 2 mg versus 5 mg or 0.5 mg fast release), the “effectiveness of slow release form” value is given as “less effective than either 5 mg or 0.5 mg (fast release)”. The “mean global jet lag score” value in the series with jet lag [3] (eastward flights, four trials combined, placebo 51) is 31; with jet lag [3] (westward flights, two RCTs, placebo 41), 22. In the series on jet lag [3] (eight of ten randomized, placebo-controlled trials), the “jet lag after melatonin administration” value is “less jet lag”.
